Assay results reported in PubChem BioAssay AID977606 (Broad Institute, 2014).
Several values for one entry are separate records, joined by “and”; a condition that tells them apart may be missing. Equal entries are not always repeated. Activity calls are given as the source filed them. No rule for the calls is given here.

Tested on: INS-1E Gaussia luciferase insulin secretion, no glucose, luminescence
Assay: glucose-independent GLuc insulin release activation – cell-based, INS-1E, Gaussia luciferase, luminescence, cherry-pick, counter-screen for glucose-dependent insulin secretion activators, dose response (AID 977606)

In order of rising AC40:
1. Cc1ccc(S(=O)(=O)C=CS(=O)(=O)c2ccc(C)cc2)cc1  0.228 µM
2. N#Cc1nccnc1S(=O)(=O)c1cccs1  0.355 µM
3. O=C(Nc1ccccc1)c1nnsc1S(=O)(=O)c1ccc(Cl)cc1  0.403 µM
4. CC(=O)C1=C(S(=O)(=O)c2ccc(C)cc2)CS(=O)(=O)C1  0.613 µM
5. Cc1ccc2oc(-c3ccc(NC(=O)c4ccc5c(c4)OCO5)cc3)nc2c1  1.1 µM
6. CCCNC(=O)c1nnsc1S(=O)(=O)c1ccc(Cl)cc1  1.15 µM
7. CN(C)c1nc(=NCc2cccs2)ss1  1.19 µM
8. OC(c1ccccc1)(c1ccccc1)C1CCN(CCCOc2ccc(-c3ccc(F)cc3F)cc2)CC1  1.29 µM
9. O=C(NCc1ccccn1)c1coc(=O)c(Br)c1  1.59 µM
10. O=c1c2ccccc2sn1-c1ccccc1  1.79 µM
11. O=C(N/N=C\c1ccc(CNS(=O)(=O)c2ccc(Cl)cc2)o1)C(=O)Nc1ccc(Oc2ccccc2)cc1  1.8 µM
12. CN(C)CCOc1ccc(-c2c(-c3ccccc3)sc3ccccc23)cc1  1.97 µM
13. CC(=O)N(/N=C/c1cccc(C)c1)c1nc(-c2ccc(Br)cc2)cs1  2.15 µM
14. COc1cc(NC(=O)c2cccc(C)c2)ccc1NC(=O)c1cc2ccccc2o1  2.21 µM
15. CCNC(=O)NC(=O)C(C)OC(=O)c1oc2ccccc2c1CSC1CCCCC1 (stereo not drawn)  2.22 µM
16. CN(C)S(=O)(=O)c1cccc(-n2sc3ccccc3c2=O)c1  2.58 µM
17. CCOC(=O)c1ccccc1NC(=O)c1n[nH]c(=O)c2ccccc12  3.05 µM
18. OC(c1ccccc1)(c1ccccc1)C1CCN(CCCOc2ccc3c(c2)CCCC3)CC1  3.37 µM
19. O=C(Nc1cccc(Cl)c1)Nc1nnc(CSCCOc2ccc(Cl)cc2)s1  3.41 µM
20. CC(C)(C(=O)N1CCC1(C)C(=O)NS(=O)(=O)c1cccc(Cl)c1)c1ccccc1 (stereo not drawn)  3.65 µM
21. O=C(Nc1ccc(Cl)c(Cl)c1)Nc1nc(-c2ccccc2)cs1  4.07 µM
22. CCn1c(O)c(/C=N/N=C/c2ccc(OC)cc2)c2cc(C3=NNC(=O)CC3)ccc21  4.2 µM
23. O=c1c(C=Nc2ccc(Oc3ccccc3)cc2)c[nH]n1-c1cccc(Cl)n1  4.28 µM
24. O=C(Nc1nc(-c2ccc(-c3ccccc3)cc2)cs1)C1=COCCO1  4.37 µM
25. CC(C)(C)c1cc(NCCCn2ccnc2)n2ncc(-c3ccc(Cl)cc3)c2n1  4.39 µM
26. Cc1ccc(Oc2ncc(-c3ccc(Cl)cc3)cn2)cc1  4.48 µM
27. Cc1ccc(S(=O)(=O)N2C[C@@H]3N[C@H](C2)C3c2ccc(/C=C/c3ccccc3)cc2)cc1 (stereo partly drawn)  4.56 µM
28. CC(C)C(Cl)=NOC(=O)Nc1ccc(S(N)(=O)=O)cc1  4.58 µM
29. Cc1cc(NC(=O)c2ccccc2F)n(-c2nc3ccccc3[nH]2)n1  4.6 µM
30. Fc1cccc(CN2C[C@@H]3N[C@H](C2)[C@@H]3c2ccc(-c3cccc(F)c3)cc2)c1  4.89 µM
31. O=C(Nc1ccc2c(c1)OCO2)c1sc2cc(Cl)ccc2c1Cl  4.98 µM
32. Cc1ccc(C(=O)Oc2ccc(-c3nccc(-c4ccccn4)n3)cc2)cc1  5.1 µM
33. Fc1ccc(-c2ccc(C3[C@@H]4CN(Cc5cccc(F)c5)C[C@H]3N4)cc2)cc1 (stereo partly drawn)  5.18 µM
34. O=C(Cn1c(COc2ccccc2)nc2ccccc21)Nc1cc(Cl)cc(Cl)c1  5.2 µM
35. CC(C)(C)c1ccc(-c2cc(-c3ccccc3O)[nH]n2)cc1  5.34 µM
36. Oc1ccccc1C1SC(c2ccccc2O)SC(c2ccccc2O)S1 (stereo not drawn)  5.36 µM
37. CCC(=O)Nc1ccc(Cl)c(NC(=S)NC(=O)COc2ccc(Cl)cc2)c1  5.38 µM
38. CC(C)(c1ccccc1)c1ccc(OCC(O)CNC2CCN(Cc3ccccc3)CC2)cc1 (stereo not drawn)  5.4 µM
39. CCSc1nnc(NC(=O)c2csc3c2CCCC3)s1  5.49 µM
40. CCOc1ccc(CN2C(=O)c3ccccc3C2=O)cc1C(=O)Nc1nnc(SCC)s1  5.71 µM
41. CCCc1nc2ccccc2c(=O)n1CC(=O)c1ccc(OC)cc1  5.72 µM
42. C/C=C/c1ccc(C2[C@@H]3CN(C(=O)Nc4ccc(C(F)(F)F)cc4)C[C@H]2N3)cc1 (stereo partly drawn)  5.83 µM
43. COc1ccc(NC(=O)COc2ccc(C(=O)NC3CCCc4ccccc43)cc2OC)cc1 (stereo not drawn)  5.92 µM
44. COc1ccc(NC(=O)c2sc3nc(N4CCOCC4)c4c(c3c2N)CC(C)(C)OC4)c(OC)c1  6.06 µM
45. COC(=O)C1=C(C)N(Cc2cccc(C(F)(F)F)c2)C(=NCc2ccc3c(c2)OCO3)NC1CCc1ccccc1 (stereo not drawn)  6.1 µM
46. Cc1cc(C)nc(Nc2n[nH]c(COc3ccc4ccccc4c3)n2)n1  6.18 µM
47. COc1cccc(OCc2nc3c4cnn(-c5ccccc5)c4ncn3n2)c1  6.42 µM
48. CCc1c(C)sc(NC(=O)c2cc(-c3ccc(OC)c(OC)c3)on2)c1C#N  6.43 µM
49. O=C(Nc1nc2ccccc2n1Cc1ccc(Cl)cc1)c1ccco1  6.72 µM
50. C/C(=N\NC(=O)c1ccc(Cl)c(Cl)c1)c1ccc(Br)s1  7.32 µM
51. Cc1ccccc1-c1ccc(C2[C@@H]3CN(C(=O)Nc4cccc(F)c4)C[C@H]2N3)cc1 (stereo partly drawn)  7.52 µM
52. COc1cccc(CN2C[C@@H]3N[C@H](C2)C3c2ccc(-c3ccccc3OC)cc2)c1 (stereo partly drawn)  7.67 µM
53. Cc1ccccc1Cn1ccc(NC(=O)c2cc3nc(-c4ccco4)cc(C(F)(F)F)n3n2)n1  7.7 µM
54. CC(C)(C)c1ccc(OCC(=O)Nc2ccc(-c3nc4cccnc4o3)cc2)cc1  7.74 µM
55. Cc1cccc(S(=O)(=O)N2CCCCN3[C@@H](CO)[C@@H](c4ccc(C#CC(C)C)cc4)[C@@H]3C2)c1  7.76 µM
56. CCCc1cc(-c2nc(-c3ccc(C)cc3)cs2)ccn1  7.92 µM
57. OC[C@@H]1[C@@H](c2ccc(C#CC3CCCC3)cc2)[C@@H]2CN(CCC(F)(F)F)CCCCN12  8.18 µM
58. CCOc1ccc2nc(NCCNC(=O)Nc3ccccc3)c(C#N)cc2c1  8.22 µM
59. N#Cc1c(-c2cccc(Br)c2)cc(-c2cccnc2)nc1N  8.34 µM
60. COC(=O)C1=C(C)N(Cc2cccc(C(F)(F)F)c2)C(=NCc2ccc(OC)cc2)NC1c1ccc(F)cc1 (stereo not drawn)  8.44 µM
61. O=C(Nc1ccc(C(F)(F)F)cc1)N1C[C@@H]2N[C@H](C1)C2c1ccc(-c2ccccc2)cc1 (stereo partly drawn)  8.46 µM
62. O[C@H]1C[C@H](c2ccccc2)N(CC2CCCCC2)C[C@@H]1n1cc(C2CC2)nn1  8.64 µM
63. Cc1ccc(OCC(=O)NC(=S)Nc2cccc(NC(=O)c3ccccc3)c2)cc1  8.85 µM
64. COc1cc2ccccc2cc1C(=O)Nc1ccc2oc(=O)ccc2c1  9.12 µM
65. NC[C@H](Cc1ccccc1)NCCc1cc(C(F)(F)F)cc(C(F)(F)F)c1  9.24 µM
66. CC(C)CSc1nc2c(c(=O)[nH]c(=O)n2C)n1CCc1ccccc1  9.29 µM
67. CC(C)CC#Cc1ccc2c(c1)O[C@@H](CN(C)Cc1ccc(F)cc1)[C@H](C)CN([C@H](C)CO)S2(=O)=O  9.44 µM
68. CC(=O)Oc1ccc(Cl)cc1/C=C/c1ccc2ccccc2n1  9.46 µM
69. C(=C\c1ccc(C2[C@@H]3CN(Cc4nccs4)C[C@H]2N3)cc1)/c1ccccc1 (stereo partly drawn)  9.48 µM
70. CCCCc1c(-c2ccccc2OC)ncn1CCc1ccccc1  9.48 µM
71. CC1(C(=O)NCc2cccc3ccccc23)CCN1Cc1ccc(OC(F)(F)F)cc1 (stereo not drawn)  9.49 µM
72. OC(c1ccccc1)(c1ccccc1)C1CCN(CCCOc2ccc(-c3ccsc3)cc2)CC1  9.65 µM
73. NC1=NC[C@H](CC2CCCCC2)N1CCc1cc(C(F)(F)F)cc(C(F)(F)F)c1  9.8 µM
74. OC(c1ccccc1)(c1nc(-c2cccc(C(F)(F)F)c2)cs1)C(F)(F)F (stereo not drawn)  10.1 µM
75. Cc1ccc(NC(=O)CNC(=O)c2sc3ccccc3c2Cl)nc1  10.3 µM
76. O=C(NC(=S)Nc1ccc(NC(=O)c2cccs2)cc1)c1cc2ccccc2o1  10.9 µM
77. C=CCNc1nc(Cl)nc(Nc2ccc(OC)cc2)n1  11.3 µM
78. CCOC(=O)[C@]12Cc3cc(OC)ccc3[C@H]1N(C1CCCCC1)C(=O)c1cc(OC)ccc12  11.7 µM
79. CCN1CCN(Cc2ccc(NC(=O)c3cccc(-c4ccc5nc(NC(=O)C6CC6)sc5n4)c3)cc2C(F)(F)F)CC1  12 µM
80. CCOC(=O)c1oc2ccccc2c1NC(=O)c1cccs1  12.6 µM
81. COc1ccccc1C(=O)Nc1c2c(nn1-c1cccc(C)c1C)CS(=O)(=O)C2  13 µM
82. CN(C)Cc1ccccc1Sc1ccc2c(c1)CCCC2  13 µM
83. CNC[C@@H](Cc1ccccc1)NC[C@@H](CC1CCCCC1)NCCCc1ccccc1  13.1 µM
84. c1ccc(Oc2ccccc2-c2cc(NCCc3cccnc3)n3nccc3n2)cc1  13.1 µM
85. CCOC(=O)c1[nH]c2cc(OC)c(OC)cc2c1NC(=O)c1ccc2c(c1)OCO2  15.6 µM
86. COc1cc2c3nnc(-c4ccccc4)c-3cn(Cc3ccccc3F)c2cc1OC  15.6 µM
87. COc1nc(-c2ccc(Cl)cc2)ccc1-c1noc(-c2ccco2)n1  16 µM
88. Cc1nc2ccccc2c2oc(C(=O)N3CCCC(C)C3)cc12 (stereo not drawn)  16 µM
89. O=C(NCC1OCCc2ccccc21)c1ccc(NC(=O)c2ccc(Cl)cc2Cl)cc1 (stereo not drawn)  17.9 µM
90. NC(=O)c1ccc2nc(-c3ccccc3)c(-c3ccccc3)nc2c1  19.8 µM
91. C=CCn1c(SCc2ccccc2)nc2c1c(=O)[nH]c(=O)n2C  21.2 µM
92. CC(=O)c1nn(-c2ccc(Br)cc2)cc1C(=O)c1ccccc1  22.1 µM
93. CC1(C(=O)NS(=O)(=O)c2ccccc2Cl)CCN1C(=O)C1(c2ccccc2)CCCC1 (stereo not drawn)  23.4 µM
94. COc1ccc(C)cc1NCc1cc(=O)oc2cc(-c3ccccc3)c(O)cc12  23.6 µM
95. Cc1nc2c(=O)n(C)c(=O)n(C)c2nc1Cl  23.6 µM
96. CN(Cc1ccccc1)C(=S)NC(=O)c1ccc(-c2ccccc2)cc1  24 µM
97. COc1ccc(C(=O)Cc2ccc3c(c2)OCO3)c(O)c1  25 µM
98. O=c1[nH]c(/C=C/c2ccc(OC(F)F)cc2)nc2c1cnn2-c1ccccc1  25.6 µM
99. COCc1[nH]nc2c1C(c1ccc(C)cc1)NC2=O (stereo not drawn)  28.5 µM
100. CC1CN(Cc2ccccc2)C(=S)NC1=O (stereo not drawn)  28.6 µM
101. O=C(CCN1CCOCC1)c1ccc2c(c1)OCCO2  33.2 µM
102. COc1ccc(C(O)c2nc(-c3ccc(OC)c(OC)c3)cs2)cc1 (stereo not drawn)  34.2 µM

`O=C(Nc1ccc(C(F)(F)F)cc1)N1C[C@@H]2N[C@H](C1)C2c1ccc(/C=C/c2ccccc2)cc1` (stereo partly drawn) was tested, and the AC40 was 5.24 µM and 0.87 µM.
With `CCOC(=O)c1c(-n2cnnn2)sc2c1CCCC2` the AC40 was > 35 µM (inactive).
With `CCCN1Cc2cccc(C(=O)NCc3ccccc3)c2C1=O` the AC40 was > 35 µM (inactive).
In the case of `C[C@@H]1CN([C@@H](C)CO)C(=O)c2cc(Br)cnc2O[C@H]1CN(C)C(=O)C1CC1`, the AC40 is reported as > 35 µM (inactive).
`CCc1ccc(-c2c(C)sc(NC(=O)C3CCC3)c2C#N)cc1` was tested, and the AC40 was > 35 µM (inactive).
For `C=CCNc1nc(NCc2ccco2)nc(OCC)n1`, the AC40 was > 35 µM (inactive).
